Assay results as given in patent publication EP3915546A1, “USE OF ACID AS SOLVENT FOR PRECIPITATIONS” (leon-nanodrugs GmbH, priority 2020, dated 2021).

Experiments:
Format in all cases: physicochemical
[1] = Precipitation with water: total concentration in suspension and share dissolved in the mother liquor
Procedure: Für die pharmazeutische Weiterverarbeitung der Suspension zu einem Arzneimittel ist es wünschenswert, eine Wirkstoffkonzentration von mehr als 50 mg/ml zu erzeugen. Tabelle 4: Erzeugung von ENZ Partikeln durch Fällung. Gesamtkonzentration an ENZ in der Suspension (mg/ml) und der Anteil (%) des in der Mutterlauge gelösten ENZ
Wird eine Lösung von 100 mg/ml Enzalutamide in Aceton mit gleichem Teil an Wasser gemischt, so fällt ein Großteil des Enzalutamides aus, da dessen Sättigungskonzentration überschritten wird. Die resultierende Mischung enthält 50% Aceton und eine Gesamtmenge von 50 mg/ml Enzalutamide. Davon werden 7,87 mg/ml in der Mutterlauge gelöst vorliegen (Tabelle 3, Nr. 2, Aceton); dies entspricht 15,7 % der Gesamtmenge von 50 mg/ml (Tabelle 4, Nr. 2, Aceton). Diese gelöste Menge an Enzalutamide (15,7 % der Gesamtmenge) ist zu hoch und führt zu einem unerwünschten und schnellen Wachstum der Partikel.

[2] = Thermodynamic saturation solubility in solvents and their mixtures with water (24 h stirring at room temperature, HPLC)
Procedure: Zur Bestimmung der thermodynamischen Sättigungslöslichkeit einer Substanz in einem bestimmten Lösungsmittel wird zunächst zur Orientierung eine Literaturrecherche durchgeführt, um einen ersten groben Richtwert zu erhalten. Danach wurden 500 mg (und gegebenenfalls mehr) des Wirkstoffpulvers eingewogen und in 5 ml des Lösungsmittels unter leichtem Rühren suspendiert. Falls das Pulver vollständig in Lösung ging, wurde zusätzlich 100 mg (oder iterative nochmalige Zugabe der initial eingewogenen Menge) Feststoff zugesetzt. Dies wurde wiederholt, bis sich ein Bodensatz bildete.
Die feststoff-enthaltende Mischung wurde verschlossen und 24 Stunden bei Raumtemperatur gerührt. Nach 24 Stunden wurde der Überstand von Bodensatz getrennt, zentrifugiert (Filtration ist nahezu unmöglich) und zur Quantifizierung mit der mobilen Phase der HPLC-Methode verdünnt.
Ein weiterer Teil des zentrifugierten Überstandes wurde unter Rühren mit demineralisiertem Wasser im Volumenverhältnis von 1:1 gemischt. Dazu wurde Wasser vorgelegt und die Wirkstofflösung unter Rühren oder Schütteln zu pipettiert. Dabei fiel Wirkstoff aus. Der Überstand wurde nach 3 Stunden von Bodensatz getrennt, zentrifugiert und zur Quantifizierung mittels HPLC verdünnt. Der Verdünnungsschritt wird grob abgeschätzt, Zielkonzentration sind z. B. 100 µg/mL je nach Wirkstoff, um im Linearitätsbereich des Detektors zu bleiben. Liegt die Konzentration zu hoch oder zu niedrig wird der Verdünnungsschritt angepasst. Die Verdünnung erfolgte mit einem zu mobilen Phase kompatiblen Lösungsmittelgemisch (z. B. Methanol vorlegen, Probe zugeben, Wasser zugeben). Falls die Substanz in diesem Lösungsmittelgemisch in dieser Verdünnung nicht löslich war, wurde die Verdünnung mit reinem organischem Lösungsmittel wiederholt.
Dieses Vorgehen wurde für die Mischungsverhältnisse von 1:2, 1:3 und 1:10 wiederholt.

[3] = Microscopy of the suspension after precipitation in a MikroJetReaktor (particle growth)
Procedure: • Figur 1: Mikroskopische Aufnahme von ENZ, entstanden durch Mischen von 1 Teil einer Lösung von 100 mg/ml ENZ in Aceton mit 1 Teil Wasser. Maßstab: Der Balken im Bild entspricht 20 µm. (a) Aufnahme unmittelbar nach Fällung. (b) Aufnahme ca. 12 Stunden nach der Fällung. • Figur 2: Mikroskopische Aufnahme von ENZ-Partikeln. Entstanden durch Mischen von 1 Teil einer Lösung von 100 mg/ml ENZ in Eisessig mit 10 Teilen Wasser. Maßstab: Der Balken im Bild entspricht 20 µm. (a) Aufnahme ca. 1 Stunde nach Fällung. (b) Aufnahme ca. 18 Stunden nach der Fällung.
100 mg Enzalutamide werden unter Rühren in 1 ml Aceton bei Raumtemperatur gelöst (100 mg/ml). Diese Lösung wird in einem MikroJetReaktor mit Wasser gemischt in einem Mischungsverhältnis von 1 Teil Enzalutamide in Aceton zu 1,01 Teilen Wasser. Die erhaltene Suspension wird mikroskopiert (Figur. 1).
100 mg Enzalutamide werden unter Rühren in 1 ml Eisessig bei Raumtemperatur gelöst (100 mg/ml). Diese Lösung wird in einem MikroJetReaktor mit Wasser gemischt in einem Mischungsverhältnis von 1 Teil Enzalutamide in Eisessig zu 10 Teilen Wasser. Die erhaltene Suspension wird mikroskopiert (Figur 3).

[4] = Aceton, Lösungsmittel-Gehalt der Mischung 100 %
[5] = Aceton/Wasser, Lösungsmittel-Gehalt der Mischung 25 %
[6] = Aceton/Wasser, Lösungsmittel-Gehalt der Mischung 33,3 %
[7] = Aceton/Wasser, Lösungsmittel-Gehalt der Mischung 50 %
[8] = Eisessig, Lösungsmittel-Gehalt der Mischung 100 %
[9] = Eisessig/Wasser, Lösungsmittel-Gehalt der Mischung 9,09 %
[10] = Eisessig/Wasser, Lösungsmittel-Gehalt der Mischung 25 %
[11] = Eisessig/Wasser, Lösungsmittel-Gehalt der Mischung 33,3 %
[12] = Eisessig/Wasser, Lösungsmittel-Gehalt der Mischung 50 %
[13] = THF, Lösungsmittel-Gehalt der Mischung 100 %
[14] = THF/Wasser, Lösungsmittel-Gehalt der Mischung 25 %
[15] = THF/Wasser, Lösungsmittel-Gehalt der Mischung 33,3 %
[16] = THF/Wasser, Lösungsmittel-Gehalt der Mischung 50 %
[17] = Aceton/Wasser, Lösungsmittel-Gehalt der Mischung 9,09 %
[18] = Ameisensäure/Wasser, Lösungsmittel-Gehalt der Mischung 9,09 %
[19] = Ethanol, Lösungsmittel-Gehalt der Mischung 100 %
[20] = Ethanol/Wasser, Lösungsmittel-Gehalt der Mischung 9,09 %
[21] = Ethanol/Wasser, Lösungsmittel-Gehalt der Mischung 25 %
[22] = Ethanol/Wasser, Lösungsmittel-Gehalt der Mischung 33,3 %
[23] = Ethanol/Wasser, Lösungsmittel-Gehalt der Mischung 50 %
[24] = THF/Wasser, Lösungsmittel-Gehalt der Mischung 9,09 %

CNC(=O)c1ccc(N2C(=S)N(c3ccc(C#N)c(C(F)(F)F)c3)C(=O)C2(C)C)cc1F [ENZ, Enzalutamid]
ENZ in Lösung bei Fällung aus (% der Gesamtmenge in Suspension) ([1]; Aceton, Lösungsmittel-Gehalt der Suspension 100 %, ENZ in Suspension 100 mg/ml): 100% | ENZ in Lösung bei Fällung aus (% der Gesamtmenge in Suspension) ([1]; Eisessig, Lösungsmittel-Gehalt der Suspension 100 %, ENZ in Suspension 100 mg/ml): 100% | ENZ in Lösung bei Fällung aus (% der Gesamtmenge in Suspension) ([1]; Fällung aus Aceton with Wasser, Lösungsmittel-Gehalt der Suspension 25 %, ENZ in Suspension 25 mg/ml): 0,93% | ENZ in Lösung bei Fällung aus (% der Gesamtmenge in Suspension) ([1]; Fällung aus Aceton with Wasser, Lösungsmittel-Gehalt der Suspension 33,3 %, ENZ in Suspension 33,3 mg/ml): 1,61% | ENZ in Lösung bei Fällung aus (% der Gesamtmenge in Suspension) ([1]; Fällung aus Aceton with Wasser, Lösungsmittel-Gehalt der Suspension 50 %, ENZ in Suspension 50 mg/ml): 15,7% | ENZ in Lösung bei Fällung aus (% der Gesamtmenge in Suspension) ([1]; Fällung aus Eisessig with Wasser, Lösungsmittel-Gehalt der Suspension 9,09 %, ENZ in Suspension 9,1 mg/ml): 0,95% | ENZ in Lösung bei Fällung aus (% der Gesamtmenge in Suspension) ([1]; Fällung aus Eisessig with Wasser, Lösungsmittel-Gehalt der Suspension 25 %, ENZ in Suspension 25 mg/ml): 0,45% | ENZ in Lösung bei Fällung aus (% der Gesamtmenge in Suspension) ([1]; Fällung aus Eisessig with Wasser, Lösungsmittel-Gehalt der Suspension 33,3 %, ENZ in Suspension 33,3 mg/ml): 0,88% | ENZ in Lösung bei Fällung aus (% der Gesamtmenge in Suspension) ([1]; Fällung aus Eisessig with Wasser, Lösungsmittel-Gehalt der Suspension 50 %, ENZ in Suspension 50 mg/ml): 4,09% | ENZ in Lösung bei Fällung aus (% der Gesamtmenge in Suspension) ([1]; Fällung aus THF with Wasser, Lösungsmittel-Gehalt der Suspension 25 %, ENZ in Suspension 25 mg/ml): 1,46% | ENZ in Lösung bei Fällung aus (% der Gesamtmenge in Suspension) ([1]; Fällung aus THF with Wasser, Lösungsmittel-Gehalt der Suspension 33,3 %, ENZ in Suspension 33,3 mg/ml): 8,04% | ENZ in Lösung bei Fällung aus (% der Gesamtmenge in Suspension) ([1]; Fällung aus THF with Wasser, Lösungsmittel-Gehalt der Suspension 50 %, ENZ in Suspension 50 mg/ml): 33,8% | ENZ in Lösung bei Fällung aus (% der Gesamtmenge in Suspension) ([1]; THF, Lösungsmittel-Gehalt der Suspension 100 %, ENZ in Suspension 100 mg/ml): 100% | Sättigungslöslichkeit von ENZ [2, 4]: 358 mg/mL | Sättigungslöslichkeit von ENZ [2, 5]: 0,233 mg/ml | Sättigungslöslichkeit von ENZ [2, 6]: 0,537 mg/ml | Sättigungslöslichkeit von ENZ [2, 7]: 7,87 mg/ml | Sättigungslöslichkeit von ENZ [2, 8]: 155,4 mg/ml | Sättigungslöslichkeit von ENZ [2, 9]: 0,086 mg/ml | Sättigungslöslichkeit von ENZ [2, 10]: 0,112 mg/ml | Sättigungslöslichkeit von ENZ [2, 11]: 0,294 mg/ml | Sättigungslöslichkeit von ENZ [2, 12]: 2,044 mg/ml | Sättigungslöslichkeit von ENZ ([2]; Eisessig/Wasser, Lösungsmittel-Gehalt der Mischung 50 %, listed as Enzalutamide): 2,04 mg/ml | Sättigungslöslichkeit von ENZ [2, 13]: 364 mg/mL | Sättigungslöslichkeit von ENZ [2, 14]: 0,365 mg/ml | Sättigungslöslichkeit von ENZ [2, 15]: 2,68 mg/ml | Sättigungslöslichkeit von ENZ [2, 16]: 16,9 mg/ml | Particles seen by microscopy after precipitation ([3]; 100 mg/ml in Aceton mixed with 1,01 Teilen Wasser in a MikroJetReaktor): Mikropartikel, die innerhalb von 12 Stunden zu großen Nadeln wachsen | Particles seen by microscopy after precipitation ([3]; 100 mg/ml in Eisessig mixed with 10 Teilen Wasser in a MikroJetReaktor): im Vergleich zu Aceton deutlich kleinere Partikel, die in Laufe von 18 Stunden zu Nadeln wachsen

CCC(C)n1ncn(-c2ccc(N3CCN(c4ccc(OCC5COC(Cn6cncn6)(c6ccc(Cl)cc6Cl)O5)cc4)CC3)cc2)c1=O (centres unmarked) [ITZ, Itraconazol]
Sättigungslöslichkeit von ITZ [2, 4]: 2,500 mg/ml | Sättigungslöslichkeit von ITZ relativ zu der Sättigungslöslichkeit im Lösungsmittel [2, 4]: 100% | Sättigungslöslichkeit von ITZ [2, 17]: 0,0001 mg/ml | Sättigungslöslichkeit von ITZ relativ zu der Sättigungslöslichkeit im Lösungsmittel [2, 17]: 0,004% | Sättigungslöslichkeit von ITZ [2, 5]: 0,002 mg/ml | Sättigungslöslichkeit von ITZ relativ zu der Sättigungslöslichkeit im Lösungsmittel [2, 5]: 0,09% | Sättigungslöslichkeit von ITZ [2, 6]: 0,008 mg/ml | Sättigungslöslichkeit von ITZ relativ zu der Sättigungslöslichkeit im Lösungsmittel [2, 6]: 0,34% | Sättigungslöslichkeit von ITZ [2, 7]: 0,038 mg/ml | Sättigungslöslichkeit von ITZ relativ zu der Sättigungslöslichkeit im Lösungsmittel [2, 7]: 1,53% | Sättigungslöslichkeit von ITZ ([2]; Ameisensäure, Lösungsmittel-Gehalt der Mischung 100 %): 435 mg/mL | Sättigungslöslichkeit von ITZ [2, 18]: 0,01 mg/ml | Sättigungslöslichkeit von ITZ relativ zu der Sättigungslöslichkeit im Lösungsmittel [2, 18]: 0,002% | Sättigungslöslichkeit von ITZ [2, 8]: 157,8 mg/ml | Sättigungslöslichkeit von ITZ relativ zu der Sättigungslöslichkeit im Lösungsmittel [2, 8]: 100% | Sättigungslöslichkeit von ITZ [2, 9]: 0,028 mg/ml | Sättigungslöslichkeit von ITZ relativ zu der Sättigungslöslichkeit im Lösungsmittel [2, 9]: 0,02% | Sättigungslöslichkeit von ITZ [2, 10]: 0,009 mg/ml | Sättigungslöslichkeit von ITZ relativ zu der Sättigungslöslichkeit im Lösungsmittel [2, 10]: 0,01% | Sättigungslöslichkeit von ITZ [2, 11]: 0,210 mg/ml | Sättigungslöslichkeit von ITZ relativ zu der Sättigungslöslichkeit im Lösungsmittel [2, 11]: 0,13% | Sättigungslöslichkeit von ITZ [2, 12]: 1,455 mg/ml | Sättigungslöslichkeit von ITZ relativ zu der Sättigungslöslichkeit im Lösungsmittel [2, 12]: 0,92% | Sättigungslöslichkeit von ITZ [2, 19]: 0,289 mg/ml | Sättigungslöslichkeit von ITZ relativ zu der Sättigungslöslichkeit im Lösungsmittel [2, 19]: 100% | Sättigungslöslichkeit von ITZ [2, 20]: 0,009 mg/ml | Sättigungslöslichkeit von ITZ relativ zu der Sättigungslöslichkeit im Lösungsmittel [2, 20]: 2,95% | Sättigungslöslichkeit von ITZ [2, 21]: 0,006 mg/ml | Sättigungslöslichkeit von ITZ relativ zu der Sättigungslöslichkeit im Lösungsmittel [2, 21]: 2,08% | Sättigungslöslichkeit von ITZ [2, 22]: 0,002 mg/ml | Sättigungslöslichkeit von ITZ relativ zu der Sättigungslöslichkeit im Lösungsmittel [2, 22]: 0,69% | Sättigungslöslichkeit von ITZ [2, 23]: 0,102 mg/ml | Sättigungslöslichkeit von ITZ relativ zu der Sättigungslöslichkeit im Lösungsmittel [2, 23]: 34,36% | Sättigungslöslichkeit von ITZ [2, 13]: 4,255 mg/ml | Sättigungslöslichkeit von ITZ relativ zu der Sättigungslöslichkeit im Lösungsmittel [2, 13]: 100% | Sättigungslöslichkeit von ITZ [2, 24]: 0,001 mg/ml | Sättigungslöslichkeit von ITZ relativ zu der Sättigungslöslichkeit im Lösungsmittel [2, 24]: 0,02% | Sättigungslöslichkeit von ITZ [2, 14]: 0,002 mg/ml | Sättigungslöslichkeit von ITZ relativ zu der Sättigungslöslichkeit im Lösungsmittel [2, 14]: 0,05% | Sättigungslöslichkeit von ITZ [2, 15]: 0,013 mg/ml | Sättigungslöslichkeit von ITZ relativ zu der Sättigungslöslichkeit im Lösungsmittel [2, 15]: 0,29% | Sättigungslöslichkeit von ITZ [2, 16]: 0,677 mg/ml | Sättigungslöslichkeit von ITZ relativ zu der Sättigungslöslichkeit im Lösungsmittel [2, 16]: 15,91% | Sättigungslöslichkeit von ITZ ([2]; in Tetrahydrofuran, Aceton und Ethanol): < 5 mg/mL | Sättigungslöslichkeit von ITZ ([2]; in den Lösungsmitteln Ameisensäure und Eisessig): > 150 mg/mL
